Measurements published in ChEMBL document CHEMBL1821685 (Eur J Med Chem, 2011).
In brackets after ≈: the same amount, converted by molar mass.

Assay: Solubility of the compound in HEPES buffer
Type: physicochemical

| Structure (SMILES) | solubility [µM] |
| --- | --- |
| CC(=O)c1cnc2c(=O)[nH]c(N)nc2n1 | 500 (≈ 103 µg/mL) |
| NNC(=O)c1cnc2c(=O)[nH]c(N)nc2n1 | 500 (≈ 111 µg/mL) |
